Test results from patent EP0677522A1, “8-METHOXYQUINOLONECARBOXYLIC ACID DERIVATIVE” (priority 1992, dated 1994).
In brackets after ≈: the same amount, converted by molar mass.

Key:
[1] = tested on: B. fragilis BFY-18; test: Antibacterial effect against specific bacteria (MIC); format: cell-based; conditions: Bacteroides fragilis, BFY18; same manner as Experimental Example 1
Description: (§1) The in vitro antibacterial activity (minimum inhibitory concentration, MIC, µg/ml) of the test compounds was determined according to Japan Society of Chemotherapy Standard [Chemotherapy, vol. 29, pp 76-79 (1981)].
(§2) In the same manner as in Experimental Example 1, the antibacterial effect against specific bacteria such as Chlamydia, Mycoplasma and acid-fast bacteria and anaerobic bacteria was determined.

[2] = tested on: Ureaplasma urealyticum ATCC 27618; test: as above; format: cell-based; conditions: ATCC27618, same manner as Experimental Example 1
Description: as §1, §2

[3] = tested on: Mycobacterium smegmatis IFO 3153; test: as above; format: cell-based; conditions: Mycolicibacterium smegmatis, IFO3153; same manner as Experimental Example 1
Description: as §1, §2

[4] = tested on: Chlamydia trachomatis D/UW-3Cx; test: as above; format: cell-based; conditions: same manner as Experimental Example 1
Description: as §1, §2

[5] = tested on: Mycoplasma pneumoniae ATCC 29343; test: as above; format: cell-based; conditions: ATCC29343, same manner as Experimental Example 1
Description: as §1, §2

[6] = tested on: Proteus vulgaris IFO 3988; test: In vitro antibacterial activity (MIC), Japan Society of Chemotherapy Standard; format: cell-based; conditions: IFO3988, inoculated cells 10⁶ cells/ml
Description: as §1
(§3) Inoculated cells were 10⁶ cells/ml and the strain with * was incubated in a medium supplemented with 10% horse blood. The mark "1)" means quinolone resistant MRSA and "2)" means quinolone resistant bacteria.

[7] = tested on: Corynebacterium diphtheriae Tronto; test: as above; format: cell-based; conditions: inoculated cells 10⁶ cells/ml, medium supplemented with 10% horse blood
Description: as §1, §3

[8] = tested on: Enterococcus faecalis LS-101; test: as above; format: cell-based; conditions: LS101, inoculated cells 10⁶ cells/ml
Description: as §1, §3

[9] = tested on: S. aureus No.88; test: as above; format: cell-based; conditions: Staphylococcus aureus; quinolone resistant MRSA; inoculated cells 10⁶ cells/ml
Description: as §1, §3

[10] = tested on: E. faecium EFMY-207; test: as above; format: cell-based; conditions: Enterococcus faecium, EFMY207; quinolone resistant bacteria; inoculated cells 10⁶ cells/ml
Description: as §1, §3

[11] = tested on: S. viridans America; test: as above; format: cell-based; conditions: Streptococcus viridans; inoculated cells 10⁶ cells/ml; medium supplemented with 10% horse blood
Description: as §1, §3

[12] = tested on: E. avium EAY-30; test: as above; format: cell-based; conditions: Enterococcus avium, EAY30, inoculated cells 10⁶ cells/ml
Description: as §1, §3

[13] = tested on: Staphylococcus aureus FDA 209P; test: as above; format: cell-based; conditions: FDA209P, inoculated cells 10⁶ cells/ml
Description: as §1, §3

[14] = tested on: Escherichia coli NIHJ JC-2; test: as above; format: cell-based; conditions: NIHJJC2, inoculated cells 10⁶ cells/ml
Description: as §1, §3

[15] = tested on: E. faecalis EFY-204; test: as above; format: cell-based; conditions: Enterococcus faecalis, EFY204; quinolone resistant bacteria; inoculated cells 10⁶ cells/ml
Description: as §1, §3

[16] = tested on: Citrobacter freundii IFO 12681; test: as above; format: cell-based; conditions: IFO12681, inoculated cells 10⁶ cells/ml
Description: as §1, §3

[17] = tested on: P. mirabilis IFO 3849; test: as above; format: cell-based; conditions: Proteus mirabilis, IFO3849; inoculated cells 10⁶ cells/ml
Description: as §1, §3

[18] = tested on: S. epidermidis ATCC 12228; test: as above; format: cell-based; conditions: Staphylococcus epidermidis, ATCC12228; inoculated cells 10⁶ cells/ml
Description: as §1, §3

[19] = tested on: E. faecium EFMY-28; test: as above; format: cell-based; conditions: Enterococcus faecium, EFMY28; inoculated cells 10⁶ cells/ml
Description: as §1, §3

[20] = tested on: S. epidermidis SEY-223; test: as above; format: cell-based; conditions: Staphylococcus epidermidis, SEY223; quinolone resistant bacteria; inoculated cells 10⁶ cells/ml
Description: as §1, §3

[21] = tested on: Pseudomonas aeruginosa IFO 12582; test: as above; format: cell-based; conditions: IFO12582, inoculated cells 10⁶ cells/ml
Description: as §1, §3

[22] = tested on: Acinetobacter calcoaceticus ATCC 13006; test: as above; format: cell-based; conditions: ATCC13006, inoculated cells 10⁶ cells/ml
Description: as §1, §3

[23] = tested on: Shigella flexneri EW-10; test: as above; format: cell-based; conditions: EW10, inoculated cells 10⁶ cells/ml
Description: as §1, §3

[24] = tested on: Serratia marcescens IFO 12648; test: as above; format: cell-based; conditions: IFO12648, inoculated cells 10⁶ cells/ml
Description: as §1, §3

[25] = tested on: Klebsiella pneumoniae DT; test: as above; format: cell-based; conditions: inoculated cells 10⁶ cells/ml
Description: as §1, §3

[26] = tested on: Streptococcus pyogenes C-203; test: as above; format: cell-based; conditions: C203, inoculated cells 10⁶ cells/ml, medium supplemented with 10% horse blood
Description: as §1, §3

[27] = tested on: Enterobacter cloacae IFO 12937; test: as above; format: cell-based; conditions: IFO12937, inoculated cells 10⁶ cells/ml
Description: as §1, §3

[28] = tested on: S. pneumoniae Type-III; test: as above; format: cell-based; conditions: Streptococcus pneumoniae; inoculated cells 10⁶ cells/ml; medium supplemented with 10% horse blood
Description: as §1, §3

[29] = tested on: E. coli KC-14; test: MIC of the infectious bacteria used for experimental infection; format: cell-based; conditions: Escherichia coli, KC14; infectious strain of the mouse protection test
Description: as §1
(§4) Experimental infection was caused by intraperitoneal inoculation of respective bacteria to male mice. One hour after the inoculation, a test compound was orally administered to the mice. The therapeutic effect of each test compound was evaluated by reference to the 50% effective dose (ED₅₀) which was based on the survival ratio at 7 days after the administration according to the probit method [Proc. Soc. Exp. Med., Vol. 57, p 261-264 (1944)]. The minimum inhibitory concentration (MIC) of the infectious bacteria used was also determined. […]

[30] = tested on: S. aureus MRSA Y-238; test: as above; format: cell-based; conditions: Staphylococcus aureus, infectious strain of the mouse protection test
Description: as §1, §4

[31] = tested on: S. aureus Smith; test: as above; format: cell-based; conditions: Staphylococcus aureus; infectious strain of the mouse protection test
Description: as §1, §4

[32] = tested on: E. coli KC-14; test: Protection of mice from experimental infection; format: in vivo; conditions: Table 3-2: male mice; intraperitoneal inoculation (744×LD₅₀); oral administration one hour after inoculation; survival ratio at 7 days
Description: as §4

[33] = tested on: S. aureus MRSA Y-238; test: Protection of mice from experimental infection; format: in vivo; conditions: Table 3-2: male mice; intraperitoneal inoculation 7.5×10⁵ cells/mouse (185×LD₅₀); oral administration one hour after inoculation; survival ratio at 7 days
Description: as §4

[34] = tested on: S. aureus Smith; test: Protection of mice from experimental infection; format: in vivo; conditions: male mice; intraperitoneal inoculation 2.8×10⁶ cells/mouse (123×LD₅₀); oral administration one hour after inoculation; survival ratio at 7 days, probit method
Description: as §4

How did the MIC [1] turn out when COc1c(N2CC[C@@](CN)(CF)C2)c(F)cc2c(=O)c(C(=O)O)cn(C3CC3)c12 [Example 17, (S)-7-(3-aminomethyl-3-fluoromethylpyrrolidin-1-yl)-1-cyclopropyl-6-fluoro-1,4-dihydro-8-methoxy-4-oxo-3-quinolinecarboxylic acid] was run?
The MIC was 0.2 µg/mL (≈ 0.491 µM).

And the MIC [2]?
Its MIC is 0.39 µg/mL (≈ 0.957 µM).

And the MIC [3]?
Its MIC is 0.1 µg/mL (≈ 0.245 µM).

And the MIC [4]?
The MIC was 0.025 µg/mL (≈ 0.0614 µM).

What about the MIC [5] of the same molecule?
Its MIC is 0.1 µg/mL (≈ 0.245 µM).

What about the MIC [6] of the same molecule?
The MIC was 0.78 µg/mL (≈ 1.91 µM).

And the MIC [7]?
Its MIC is 0.025 µg/mL (≈ 0.0614 µM).

And the MIC [8]?
Its MIC is 0.025 µg/mL (≈ 0.0614 µM).

What about the MIC [9] of the same molecule?
The MIC was 0.78 µg/mL (≈ 1.91 µM).

What about the MIC [10] of the same molecule?
Its MIC is 3.13 µg/mL (≈ 7.68 µM).

And the MIC [11]?
The MIC was 0.1 µg/mL (≈ 0.245 µM).

And the MIC [12]?
Its MIC is 0.2 µg/mL (≈ 0.491 µM).

What about the MIC [13] of the same molecule?
Its MIC is 0.012 µg/mL (≈ 0.0295 µM).

And the MIC [14]?
The MIC was 0.1 µg/mL (≈ 0.245 µM).

And the MIC [15]?
The MIC was 1.56 µg/mL (≈ 3.83 µM).

And the MIC [16]?
Its MIC is 0.2 µg/mL (≈ 0.491 µM).

What about the MIC [17] of the same molecule?
Its MIC is 0.78 µg/mL (≈ 1.91 µM).

What about the MIC [18] of the same molecule?
Its MIC is 0.025 µg/mL (≈ 0.0614 µM).

And the MIC [19]?
The MIC was 0.39 µg/mL (≈ 0.957 µM).

What about the MIC [20] of the same molecule?
Its MIC is 0.78 µg/mL (≈ 1.91 µM).

And the MIC [21]?
The MIC was 1.56 µg/mL (≈ 3.83 µM).

What about the MIC [22] of the same molecule?
The MIC was 0.1 µg/mL (≈ 0.245 µM).

What about the MIC [23] of the same molecule?
Its MIC is 0.025 µg/mL (≈ 0.0614 µM).

What about the MIC [24] of the same molecule?
The MIC was 0.39 µg/mL (≈ 0.957 µM).

And the MIC [25]?
Its MIC is 0.05 µg/mL (≈ 0.123 µM).

What about the MIC [26] of the same molecule?
Its MIC is 0.1 µg/mL (≈ 0.245 µM).

What about the MIC [27] of the same molecule?
The MIC was 0.39 µg/mL (≈ 0.957 µM).

What about the MIC [28] of the same molecule?
The MIC was 0.05 µg/mL (≈ 0.123 µM).

And the MIC [29]?
Its MIC is 0.025 µg/mL.

And the MIC [30]?
Its MIC is 0.39 µg/mL.

What about the MIC [31] of the same molecule?
The MIC was at most 0.006 µg/mL.

And the “ED₅₀ (mg/mouse) (95% confidence limit)” value [32]?
The value was 0.011(0.008-0.015) mg/mouse.

What about the “ED₅₀ (mg/mouse) (95% confidence limit)” value [33] of the same molecule?
The value was 1.540(1.103-2.151) mg/mouse.

What about the “ED₅₀ (mg/mouse) (95% confidence limit)” value [34] of the same molecule?
Its value is 0.031(0.021-0.044) mg/mouse.
